In PMC9229949 (Pharmaceutics, 2022):
Where two headings read alike, the source gives them in different places.

Assays:
[1] = target: T1, S. mansoni thioredoxin-glutathione reductase (SmTGR) (Schistosoma mansoni, UniProt Q962Y6); assay: Inhibition of enzymatic activity of recombinant S. mansoni thioredoxin glutathione reductase; assay type: biochemical; conditions: 15 min preincubation, mean of one experiment, read-out: IC50 for TrxRs, S. mansoni (Sec)
T1 construct: made in house
T1 sequence (Q962Y6 1-598): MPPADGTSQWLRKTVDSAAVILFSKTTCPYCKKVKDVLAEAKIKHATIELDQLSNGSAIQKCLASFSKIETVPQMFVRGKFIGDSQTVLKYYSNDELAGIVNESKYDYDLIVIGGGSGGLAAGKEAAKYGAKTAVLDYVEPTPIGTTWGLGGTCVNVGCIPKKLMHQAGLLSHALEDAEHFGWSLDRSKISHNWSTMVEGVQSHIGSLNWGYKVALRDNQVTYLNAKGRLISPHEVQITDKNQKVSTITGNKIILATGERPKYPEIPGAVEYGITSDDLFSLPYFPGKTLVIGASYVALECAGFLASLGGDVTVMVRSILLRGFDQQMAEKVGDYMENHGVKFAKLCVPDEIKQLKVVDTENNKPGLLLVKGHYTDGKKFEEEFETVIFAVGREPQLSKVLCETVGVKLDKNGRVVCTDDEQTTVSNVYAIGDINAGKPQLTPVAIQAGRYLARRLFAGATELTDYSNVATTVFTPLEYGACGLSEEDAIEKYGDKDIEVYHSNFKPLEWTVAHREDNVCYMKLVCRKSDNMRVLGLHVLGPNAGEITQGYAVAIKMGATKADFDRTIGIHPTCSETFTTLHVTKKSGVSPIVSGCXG
Experimental: (§1) The codon-optimized sequence for PfTrxR [27, 28] was synthesized and subcloned into pET-15b (Genscript) and expressed and purified as for human glutathione reductase (hGR). Recombinant Schistosoma mansoni (S. mansoni) thioredoxin glutathione reductase (SmTGR), human TrxR (hTrxR), and hGR proteins were expressed and purified as described. TrxR and TGR enzyme inhibition assays were performed in triplicate at 25 °C in 0.1 M potassium phosphate (pH 7.4), 10 mM EDTA, 100 µM NADPH and 0.01% Tween-20. SmTGR (4 nM), hTrxR (4 nM), and PfTrxR (50 nM) were preincubated with the compounds for 15 min. The reaction was started with addition of an equal volume of 5,5′-dithiobis(2-nitrobenzoic acid) (6 mM) and NADPH (100 µM). The increase in A412 during the first 3 min was recorded. […]. The reactions were performed in triplicate. The IC50s were calculated in Prism version 5.01.

[2] = target: T2, human TrxR (hTrxR) (Homo sapiens, UniProt Q16881); assay: Inhibition of enzymatic activity of recombinant human TrxR; assay type: biochemical; conditions: recombinant enzyme, 15 min preincubation; mean of one experiment; read-out: IC50 for TrxRs, Human (Sec)
T2 construct: made in house
T2 sequence (Q16881 151-649 limits assumed): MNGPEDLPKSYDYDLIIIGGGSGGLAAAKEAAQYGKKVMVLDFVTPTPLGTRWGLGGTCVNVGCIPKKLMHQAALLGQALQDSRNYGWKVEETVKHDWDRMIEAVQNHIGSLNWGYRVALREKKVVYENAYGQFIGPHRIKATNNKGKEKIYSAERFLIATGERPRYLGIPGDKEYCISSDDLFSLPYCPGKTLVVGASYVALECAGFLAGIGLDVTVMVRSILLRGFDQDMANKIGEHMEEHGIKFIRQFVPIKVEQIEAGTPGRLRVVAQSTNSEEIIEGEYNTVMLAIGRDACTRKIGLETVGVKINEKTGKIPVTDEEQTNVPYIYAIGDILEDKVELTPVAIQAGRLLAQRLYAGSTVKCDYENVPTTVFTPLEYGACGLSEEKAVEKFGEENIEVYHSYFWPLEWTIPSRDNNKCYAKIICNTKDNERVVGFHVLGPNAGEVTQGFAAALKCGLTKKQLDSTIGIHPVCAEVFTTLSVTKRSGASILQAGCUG
Experimental: as §1

[3] = test system: 3D7 P. falciparum gametocytes stage V; assay: P. falciparum mature gametocytes (stage V), luciferase viability; assay type: cell-based; conditions: 3D7 strain, 72 h, mean ± S.D. of one experiment, read-out: IC50, gametocytes of P. falciparum, Stage V
Experimental: The activity of compounds was assessed against young gametocytes (stages I/III) and against mature gametocytes (stage V). […] A volume of 100 μL of 3D7elo1-pfs16-CBG99 gametocytes of 3D7 P. falciparum at 0.5–1% parasitemia and 2% hematocrit were dispensed. […] Luciferase activity was used to determine gametocytes viability. A volume of 100 µL of culture medium was removed from each well to increase hematocrit; 70 µL of resuspended culture was transferred to a black 96-well plate; 70 µL of D-luciferin (1 mM in citrate buffer 0.1 M, pH 5.5) was added. Luminescence measurements were performed after 10 min with 500 ms integration time. The IC50 was extrapolated from nonlinear regression analysis of the concentration–response curve.

[4] = target: T3, PfTrxR (Plasmodium falciparum, UniProt Q25861); assay: Inhibition of enzymatic activity of recombinant P. falciparum TrxR; assay type: biochemical
T3 construct: made in house
T3 sequence (Q25861 1-541): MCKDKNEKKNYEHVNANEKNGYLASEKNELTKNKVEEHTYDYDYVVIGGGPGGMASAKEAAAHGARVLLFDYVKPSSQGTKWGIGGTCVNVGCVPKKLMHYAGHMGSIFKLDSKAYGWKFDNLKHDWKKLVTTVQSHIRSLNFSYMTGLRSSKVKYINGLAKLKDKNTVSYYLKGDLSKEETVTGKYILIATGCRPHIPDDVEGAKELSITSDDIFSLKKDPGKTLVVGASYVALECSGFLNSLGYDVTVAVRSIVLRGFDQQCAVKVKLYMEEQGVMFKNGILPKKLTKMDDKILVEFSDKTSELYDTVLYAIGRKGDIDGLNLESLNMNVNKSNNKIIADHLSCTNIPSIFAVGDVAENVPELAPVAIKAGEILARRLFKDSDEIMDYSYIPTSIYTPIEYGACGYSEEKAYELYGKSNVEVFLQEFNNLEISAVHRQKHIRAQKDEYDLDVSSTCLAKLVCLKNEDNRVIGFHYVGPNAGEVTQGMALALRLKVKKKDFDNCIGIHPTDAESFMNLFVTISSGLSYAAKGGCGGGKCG
Experimental: as §1

SMILES	IC50 [1] [µM]	IC50 [2] [µM]	IC50 ([3]; Plasmodium falciparum) [µM]	IC50 [4] [µM]	IC50 [3] [µM]	IC50 ([4]; recombinant enzyme, 15 min preincubation, mean of one experiment, read-out: IC50 for TrxRs, P. falciparum (Cys)) [µM]
CCN(CC)Cc1cc(Nc2ccnc3cc(Cl)ccc23)ccc1O [Amodiaquine (AQ), amodiaquine]	42	26.5	23.6 ± 5	> 66.7	–	–
[Cl][Au].c1ccc(P(c2ccccc2)c2ccccc2)cc1 [[AuClPPh3]]	0.0005	0.00065	–	–	15.2 ± 2.6	0.0019
